The values below come from patent US9848603B2, “Methods for protecting plants with antifungal compositions” (priority 2008, dated 2017).

Ends that are not written are not given here.

Assay [1] has as its system Fov hyphae. Description: Detection of reactive oxygen species (DHR123 oxidation) in response to NaD1. The note with it: for effect of ROS scavenger on NaD1-induced DHR123 oxidation: in the presence of ascorbic acid or TEMPO.
Assay [2] deals with Fusarium oxysporum f. sp. vasinfectum (Fov). It is filed as cell-based.
Assay [3] has the same test system. Briefly: Growth of Fusarium oxysporum in the presence of NaD1 and chemical fungicides in vitro. It is filed as cell-based. Conditions: Fov growth curves, combination with NaD1. The protocol:
The inhibitory effects of defensin (NaD1) and chemical fungicides on the growth of Fusarium oxysporum f. sp. vasinfectum (Fov) (Australian isolate VCG01111 isolated from cotton and provided by Farming Systems Institute, DPI, Queensland, Australia) were measured essentially as described by Broekaert, et al (1990). Spores were isolated from sporulating cultures growing in ½ strength potato dextrose broth (PDB). The Fov culture was grown in ½ PDB for 1-2 weeks at room temperature, before spores were separated from hyphal matter by filtration through sterile tissue paper. The concentration of spores in the filtrate was measured using a hemocytometer. NaD1 and the fungicides were prepared as described in Example 1. The conditions used for the fungal growth assay were the same as those described in Example 1.

A further assay deals with Leptosphaeria maculans. Description: Growth of Leptosphaeria maculans in the presence of NaD1 and chemical fungicides in vitro. Conditions: L. maculans, combination with NaD1. It is filed as cell-based. The protocol:
The defensin (NaD1) and the chemical fungicides prothioconazole (Sigma-Aldrich Cat #34232, 99.9% pure) and fluquinconazole (Nova Chem, Cat #C13805000, 98.5% pure) were assessed for their individual and combined inhibitory effects on the growth of Leptosphaeria maculans (Australian isolate IBCN18, Prof. B. Howlett) in vitro.
Leptosphaeria maculans was grown in 10% (v/v) V8 medium for about 2 weeks. Spores were collected by filtration through sterile muslin and adjusted to a final concentration of 5×10^4 spores/mL. The conditions used for the fungal growth assay were the same as those described in Example 1 except 10% (v/v) V8 medium was used.

A further assay concerns Verticillium dahliae. Briefly: Growth of Verticillium dahliae in the presence of NaD1 and chemical fungicides in vitro. Conditions: V. dahliae growth curves, combination with NaD1. Type of assay: cell-based. The protocol:
The inhibitory effects of defensin (NaD1) and chemical fungicides were assayed on growth of Verticillium dahliae (Australian isolate VCG-4B, Dr. Stephen Allen, Cotton Seed Distributors, Narrabri, NSW, Australia) in vitro.
Spores of V. dahliae were isolated from sporulating cultures growing in Czapek-Dox broth (Difco) for 1-2 weeks at room temperature. Spores were separated from hyphal matter by filtration through sterile tissue paper and the concentration of spores in the filtrate was measured using a hemocytometer. NaD1 and the fungicides were prepared as described in Example 1. The conditions used for the fungal growth assay were the same as those described in Example 1 except that Czapek-Dox broth was used in place of PDB.

The test system of the next assay is Fusarium graminearum. Briefly: microbe, parasite or virus in culture. It is filed as cell-based.
In another assay the test system is Saccharomyces cerevisiae. Briefly: Effect of NaD1 on growth of yeast strains.
For assay [4], the system named is Fov hyphae. Briefly: Uptake of fluorescently labeled NaD1 (NaD1-bimane) by fluorescence microscopy. The note with it: live hyphae.
Protocol: Hyphae grown for 18 h as described were treated with NaD1-bimane (2 μM) for between 10 min and 6 h. Hyphae were then visualized by fluorescence microscopy using an MWU filter (excitation wavelength of 330-385 nm).
In assay [5] the test system is Fov hyphae. Description: Membrane permeabilization of Fov hyphae, SYTOX green uptake. The note with it: 0.1, 2 or 10 μM NaD1 or 10 μM NaD1R&A. It is filed as cell-based, Fusarium oxysporum f. sp. vasinfectum.
The test system of the next assay is Candida albicans. Description: Effect of NaD1 on growth of yeast strains.

Protocol for Candida albicans: (§1) The effect of NaD1 on the growth of the yeast strains Candida albicans, Pichia pastoris and Saccharomyces cerevisiae (from Department of Microbiology, La Trobe University) was assayed in microtitre plates. Cells were grown in YPD for 48 h, then counted using a haemocytometer and diluted to a concentration of 5×10^4 cells/mL in fresh YPD. Cell suspension (100 μL) containing 0-10 μM NaD1 was added to the wells of a 96-well microtitre plate and incubated for 48 h at 30° C. Growth was determined by measuring the optical density at 595 nm using a microtitre plate reader. Each test was performed in quadruplicate.
Protocol for Saccharomyces cerevisiae: as §1

Take `CC1(C)CCCC(C)(C)N1[O]` [TEMPO]: the “effect of ROS scavenger on NaD1-induced DHR123 oxidation” value with Fov hyphae [1] is reported as “did not alter the level of fluorescence”.

Turning to `O=C1O[C@H]([C@@H](O)CO)C(O)=C1O` [ascorbic acid, Ascorbic acid], in [2], the “effect of ROS scavenger on growth inhibition of Fov by NaD1” value is recorded as “nor did the presence of 10 mM ascorbic acid affect growth inhibition of Fov by NaD1”. Also, the “effect of ROS scavenger on NaD1-induced DHR123 oxidation” value in the assay on Fov hyphae [1] is given as “did not alter the level of fluorescence”.

`CO/C=C(/C(=O)OC)c1ccccc1Oc1cc(Oc2ccccc2C#N)ncn1` [azoxystrobin]: in assay [3], the “synergism with NaD1” value is listed as “synergistic effect”.

Consider `CO/N=C(/C1=NOCCO1)c1ccccc1Oc1ncnc(Oc2ccccc2Cl)c1F` [fluoxastrobin], for which the “synergism with NaD1” value in [3] is “synergy”.

Take `O=c1c2cc(F)ccc2nc(-n2cncn2)n1-c1ccc(Cl)cc1Cl` [fluquinconazole]: the “enhancement of fungicide activity by defensin” value in the assay with Leptosphaeria maculans is given as “synergistic”.

Regarding `C[Si](Cn1cncn1)(c1ccc(F)cc1)c1ccc(F)cc1` [flusilazole], the “synergism with NaD1” value in the assay with Verticillium dahliae is listed as “Synergism”.

On to `CO/C=C(/C(=O)OC)c1ccccc1COc1cccc(C(F)(F)F)n1` [picoxystrobin], for which the “synergism with NaD1” value in [3] was “synergy”.

By inhibition is commonly meant how much of the control response was suppressed. On to `CCCC1COC(Cn2cncn2)(c2ccc(Cl)cc2Cl)O1` (stereo not drawn) [propiconazole], for which the “toxicity with Fusarium graminearum” value with Fusarium graminearum (0.24 μM NaD1 combined with 1 mg/L propiconazole) is “significantly enhanced”. The “synergism with NaD1” value with Fusarium graminearum (F. graminearum growth curves, combination with NaD1) was “Synergism”; in [3], “Synergism”; with Verticillium dahliae, “Synergism”. In the assay on Fusarium graminearum (Fusarium graminearum, read-out: inhibition of fungal growth), the inhibition at 0.06 µg/mL is around 13%. Besides, the “inhibition of fungal growth” value in the assay on Fusarium graminearum (combination of 0.5 μM defensin and 0.06 mg/L propiconazole) is “about 78%”.

`OC(Cc1ccccc1Cl)(Cn1nc[nH]c1=S)C1(Cl)CC1` (stereo not drawn) [prothioconazole]: the “enhancement of fungicide activity by defensin” value with Leptosphaeria maculans is “synergistic”.

For `CC(C)(C)C(O)(CCc1ccc(Cl)cc1)Cn1cncn1` (stereo not drawn) [tebuconazole], the “synergism with NaD1” value with Verticillium dahliae is “Synergism”.

In the case of “DmAMP1: plant defensin from dahlia (ELCEKASKTWSGNCGNTGHCDNQCKSWEGAAHGACHVRNGKHMCFCYFNC; UniProt P0C8Y4 1-50, looked up) [reference compound]”, the effect on growth entry in the assay with Saccharomyces cerevisiae was “inhibited the growth”.

As for “NaD1 labeled with FITC: NaD1 labeled with FITC via reactive amine groups (RECKTESNTFPGICITKPPCRKACISEKFTDGHCSKILRRCLCTKPC; cysteine pairing not given here; also: FITC label via reactive amine groups; UniProt Q8GTM0 26-72, looked up)”, in assay [2], the “antifungal activity of labeled NaD1” value was “not biologically active”.

On to “NaD1-bimane: NaD1 labeled with the fluorophore bimane amine on carboxyl residues (RECKTESNTFPGICITKPPCRKACISEKFTDGHCSKILRRCLCTKPC; cysteine pairing not given here; also: bimane amine fluorophore on carboxyl residues; UniProt Q8GTM0 26-72, looked up)”, for which, in assay [2], the “antifungal activity of labeled NaD1” value is “retained full antifungal activity”. Besides, the “time at which internalization was observed” value with Fov hyphae [4] lay in the range of 20 to 30 min.

For the molecule “NaD1R&A: NaD1 with cysteine residues reduced and alkylated (RECKTESNTFPGICITKPPCRKACISEKFTDGHCSKILRRCLCTKPC; also: cysteines reduced and alkylated; UniProt Q8GTM0 26-72, looked up)”, the “activity in growth inhibitory assays” value in assay [2] was “completely inactive”. Further, the “permeabilization of hyphae (SYTOX green)” value in the assay on Fov hyphae [5] is “Permeabilization was not observed”. The “ROS production (DHR123 oxidation fluorescence)” value in the assay on Fov hyphae [1] (NaD1 0.1, 2 and 10 μM or 10 μM NaD1R&A) is given as “No fluorescence was observed”.

As to “RsAFP2: plant defensin from radish (QKLCQRPSGTWSGVCGNNNACKNQCIRLEKARHGSCNYVFPAHKCICYFPC; UniProt P30230 30-80, looked up) [reference compound]”, the effect on growth result in the assay on Candida albicans is reported as “inhibited the growth”.
